Test results taken from ChEMBL document CHEMBL4507282, “Data for DCP probe BI-1950” (2021).

Key:
[1] = biological target: Serotonin 1 (5-HT1) receptor (Rattus norvegicus) (UniProt P28564+P30940+P19327+P28565); test: 5HT1/R Eurofins-Panlabs selectivity data (BI); assay type: protein assay; settings: Compound concentration 10.0 uM
[2] = biological target: 5-hydroxytryptamine receptor 6 (Homo sapiens) (UniProt P50406); test: 5HT6/HU Eurofins-Panlabs selectivity data (BI); settings: Compound concentration 10.0 uM
[3] = biological target: Sodium-dependent serotonin transporter (Homo sapiens) (UniProt P31645); test: 5HTTRANS/HU Eurofins-Panlabs selectivity data (BI); settings: Compound concentration 10.0 uM
[4] = biological target: Adrenergic receptor alpha-2 (Rattus norvegicus) (UniProt P22086+P19328+P22909); test: ALPHA2/R Eurofins-Panlabs selectivity data (BI); assay type: protein assay; settings: Compound concentration 10.0 uM
[5] = biological target: Voltage-dependent L-type calcium channel subunit alpha-1C (DHP site) (Rattus norvegicus, UniProt P22002); test: CA+/DHPSI/RA Eurofins-Panlabs selectivity data (BI); settings: read-out: % Ctrl
Voltage-dependent L-type calcium channel subunit alpha-1C (DHP site), sequence (P22002 whole entry): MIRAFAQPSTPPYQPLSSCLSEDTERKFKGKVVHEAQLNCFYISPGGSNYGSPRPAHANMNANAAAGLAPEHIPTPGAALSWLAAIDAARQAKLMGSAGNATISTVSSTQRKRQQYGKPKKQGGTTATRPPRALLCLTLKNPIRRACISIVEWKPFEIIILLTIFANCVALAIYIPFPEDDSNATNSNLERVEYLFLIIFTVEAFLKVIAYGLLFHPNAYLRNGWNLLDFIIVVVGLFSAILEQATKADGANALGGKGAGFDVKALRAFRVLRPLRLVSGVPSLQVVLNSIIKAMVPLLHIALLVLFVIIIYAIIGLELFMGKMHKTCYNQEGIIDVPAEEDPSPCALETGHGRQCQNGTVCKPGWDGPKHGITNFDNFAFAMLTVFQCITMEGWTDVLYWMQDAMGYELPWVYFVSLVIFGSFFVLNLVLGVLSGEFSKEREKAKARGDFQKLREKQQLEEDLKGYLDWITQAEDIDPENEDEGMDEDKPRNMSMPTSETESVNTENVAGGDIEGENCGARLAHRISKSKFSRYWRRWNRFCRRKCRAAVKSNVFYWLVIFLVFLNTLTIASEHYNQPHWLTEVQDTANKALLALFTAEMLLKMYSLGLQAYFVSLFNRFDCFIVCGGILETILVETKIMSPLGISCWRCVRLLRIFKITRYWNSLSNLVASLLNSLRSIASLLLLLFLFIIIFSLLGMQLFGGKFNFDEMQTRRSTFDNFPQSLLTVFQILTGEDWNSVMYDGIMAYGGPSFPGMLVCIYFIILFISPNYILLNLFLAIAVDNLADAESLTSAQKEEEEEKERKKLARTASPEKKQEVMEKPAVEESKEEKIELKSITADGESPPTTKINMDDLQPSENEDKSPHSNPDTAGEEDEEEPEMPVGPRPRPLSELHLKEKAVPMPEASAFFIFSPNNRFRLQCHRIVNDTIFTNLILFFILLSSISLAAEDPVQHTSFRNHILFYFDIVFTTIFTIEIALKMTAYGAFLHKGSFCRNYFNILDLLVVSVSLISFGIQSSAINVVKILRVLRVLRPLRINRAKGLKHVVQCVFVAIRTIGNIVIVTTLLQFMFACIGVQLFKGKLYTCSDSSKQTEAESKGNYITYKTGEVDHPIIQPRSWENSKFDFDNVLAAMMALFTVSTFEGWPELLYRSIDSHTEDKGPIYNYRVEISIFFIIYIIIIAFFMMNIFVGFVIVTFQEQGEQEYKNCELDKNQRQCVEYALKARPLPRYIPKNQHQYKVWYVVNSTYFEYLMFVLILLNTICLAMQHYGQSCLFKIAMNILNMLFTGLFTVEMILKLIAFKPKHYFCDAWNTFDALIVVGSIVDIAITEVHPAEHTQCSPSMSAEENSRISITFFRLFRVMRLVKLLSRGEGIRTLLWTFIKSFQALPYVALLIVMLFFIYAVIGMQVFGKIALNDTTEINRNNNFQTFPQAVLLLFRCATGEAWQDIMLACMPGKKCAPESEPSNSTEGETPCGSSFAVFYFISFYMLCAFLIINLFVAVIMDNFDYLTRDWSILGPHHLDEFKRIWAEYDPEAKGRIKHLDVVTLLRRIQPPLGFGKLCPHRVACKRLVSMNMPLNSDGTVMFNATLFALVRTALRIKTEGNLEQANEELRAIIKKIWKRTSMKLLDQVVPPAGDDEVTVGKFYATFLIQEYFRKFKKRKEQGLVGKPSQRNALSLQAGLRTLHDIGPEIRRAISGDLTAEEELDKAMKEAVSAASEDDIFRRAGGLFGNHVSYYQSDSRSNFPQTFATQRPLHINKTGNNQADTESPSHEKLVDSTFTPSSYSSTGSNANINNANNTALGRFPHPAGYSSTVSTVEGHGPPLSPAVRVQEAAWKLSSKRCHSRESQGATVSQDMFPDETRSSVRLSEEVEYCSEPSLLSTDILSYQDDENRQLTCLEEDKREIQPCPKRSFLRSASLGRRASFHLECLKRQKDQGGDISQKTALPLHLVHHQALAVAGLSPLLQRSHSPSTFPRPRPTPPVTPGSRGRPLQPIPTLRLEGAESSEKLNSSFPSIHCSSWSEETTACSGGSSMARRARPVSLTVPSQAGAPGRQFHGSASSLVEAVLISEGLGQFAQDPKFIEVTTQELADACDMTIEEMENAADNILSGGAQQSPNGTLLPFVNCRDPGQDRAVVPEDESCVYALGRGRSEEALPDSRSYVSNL

[6] = biological target: Voltage-dependent N-type calcium channel subunit alpha-1B (Rattus norvegicus) (UniProt Q02294); test: CA+/N/RA Eurofins-Panlabs selectivity data (BI); settings: Compound concentration 10.0 uM
[7] = biological target: D(1A) dopamine receptor (Homo sapiens) (UniProt P21728); test: D1/HU Eurofins-Panlabs selectivity data (BI); settings: Compound concentration 10.0 uM
D(1A) dopamine receptor (Homo sapiens), sequence (P21728 whole entry): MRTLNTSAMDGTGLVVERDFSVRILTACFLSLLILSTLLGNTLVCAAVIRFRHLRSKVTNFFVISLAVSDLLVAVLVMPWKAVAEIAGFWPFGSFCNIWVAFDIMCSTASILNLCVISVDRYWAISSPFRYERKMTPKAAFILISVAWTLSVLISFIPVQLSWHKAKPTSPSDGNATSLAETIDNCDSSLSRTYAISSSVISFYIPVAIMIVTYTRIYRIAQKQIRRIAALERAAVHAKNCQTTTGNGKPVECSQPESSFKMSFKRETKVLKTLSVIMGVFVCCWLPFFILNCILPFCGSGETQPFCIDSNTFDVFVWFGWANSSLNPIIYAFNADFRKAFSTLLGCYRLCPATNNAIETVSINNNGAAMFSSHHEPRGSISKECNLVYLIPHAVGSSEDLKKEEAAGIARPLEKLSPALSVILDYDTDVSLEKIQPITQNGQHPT

[8] = biological target: D(2) dopamine receptor (Homo sapiens) (UniProt P14416); test: D2L/H Eurofins-Panlabs selectivity data (BI); settings: Compound concentration 10.0 uM
D(2) dopamine receptor (Homo sapiens), sequence (P14416 whole entry): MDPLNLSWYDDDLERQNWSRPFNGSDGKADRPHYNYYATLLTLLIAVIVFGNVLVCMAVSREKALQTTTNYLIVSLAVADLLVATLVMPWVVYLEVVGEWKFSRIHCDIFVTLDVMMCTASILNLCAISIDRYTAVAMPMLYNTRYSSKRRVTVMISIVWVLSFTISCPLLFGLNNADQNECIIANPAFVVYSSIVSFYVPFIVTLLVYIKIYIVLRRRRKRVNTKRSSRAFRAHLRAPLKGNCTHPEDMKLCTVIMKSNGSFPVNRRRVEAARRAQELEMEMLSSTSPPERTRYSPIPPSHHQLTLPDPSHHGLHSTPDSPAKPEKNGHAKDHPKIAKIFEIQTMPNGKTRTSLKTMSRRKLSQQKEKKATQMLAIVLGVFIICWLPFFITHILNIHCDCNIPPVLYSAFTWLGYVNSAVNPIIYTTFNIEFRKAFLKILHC

[9] = biological target: T1, D(4) dopamine receptor (Homo sapiens) (UniProt P21917); test: D4.2/H Eurofins-Panlabs selectivity data (BI); settings: Compound concentration 10.0 uM
T1 sequence (whole entry): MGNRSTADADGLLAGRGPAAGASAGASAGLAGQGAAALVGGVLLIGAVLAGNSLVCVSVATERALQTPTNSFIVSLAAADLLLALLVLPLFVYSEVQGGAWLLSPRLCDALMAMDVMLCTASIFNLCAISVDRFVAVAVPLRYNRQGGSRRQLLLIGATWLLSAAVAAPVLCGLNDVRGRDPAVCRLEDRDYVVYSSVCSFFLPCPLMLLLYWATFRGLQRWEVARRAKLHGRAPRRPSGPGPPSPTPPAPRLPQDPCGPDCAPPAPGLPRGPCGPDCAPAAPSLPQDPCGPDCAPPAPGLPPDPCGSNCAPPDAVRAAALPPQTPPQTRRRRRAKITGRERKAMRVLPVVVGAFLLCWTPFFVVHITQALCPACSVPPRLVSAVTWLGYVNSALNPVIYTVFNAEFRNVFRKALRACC

[10] = biological target: Sodium-dependent dopamine transporter (Homo sapiens) (UniProt Q01959); test: DATRANS/H Eurofins-Panlabs selectivity data (BI); settings: Compound concentration 10.0 uM
[11] = biological target: Gamma-aminobutyric acid receptor subunit alpha-1 (Rattus norvegicus) (UniProt P62813); test: GABAACENTR Eurofins-Panlabs selectivity data (BI); settings: Compound concentration 10.0 uM
Gamma-aminobutyric acid receptor subunit alpha-1 (Rattus norvegicus), sequence (P62813 whole entry): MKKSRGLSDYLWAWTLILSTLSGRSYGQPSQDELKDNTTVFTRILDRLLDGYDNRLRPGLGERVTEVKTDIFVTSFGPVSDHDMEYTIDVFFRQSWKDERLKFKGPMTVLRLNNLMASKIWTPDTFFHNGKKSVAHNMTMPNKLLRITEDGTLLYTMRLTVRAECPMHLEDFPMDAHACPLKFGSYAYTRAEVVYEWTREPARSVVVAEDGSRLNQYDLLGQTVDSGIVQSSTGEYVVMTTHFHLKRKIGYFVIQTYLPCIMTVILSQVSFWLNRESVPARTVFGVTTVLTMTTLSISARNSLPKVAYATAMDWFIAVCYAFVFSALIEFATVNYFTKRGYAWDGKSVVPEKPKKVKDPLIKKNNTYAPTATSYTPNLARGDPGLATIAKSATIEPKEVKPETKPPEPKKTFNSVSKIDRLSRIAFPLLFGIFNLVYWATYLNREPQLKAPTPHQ

[12] = biological target: Histamine H3 receptor (Homo sapiens) (UniProt Q9Y5N1); test: H3/H Eurofins-Panlabs selectivity data (BI); settings: Compound concentration 10.0 uM
[13] = biological target: ATP-sensitive inward rectifier potassium channel 1 isoform X1 (Mesocricetus auratus) (UniProt A0A1U8CU73); test: K+/KATP/HA Eurofins-Panlabs selectivity data (BI); settings: Compound concentration 10.0 uM
[14] = biological target: Small conductance calcium-activated potassium channel protein 1 (Rattus norvegicus) (UniProt P70606); test: K+/SKCA Eurofins-Panlabs selectivity data (BI); settings: Compound concentration 10.0 uM
[15] = biological target: Amine oxidase [flavin-containing] A (MAO-A) (Homo sapiens, UniProt P21397); test: MAOA Eurofins-Panlabs selectivity data (BI); set-up: mode of action inhibitor; settings: compound concentration 10 uM, read-out: % Ctrl
Amine oxidase [flavin-containing] A (MAO-A), sequence (P21397 whole entry): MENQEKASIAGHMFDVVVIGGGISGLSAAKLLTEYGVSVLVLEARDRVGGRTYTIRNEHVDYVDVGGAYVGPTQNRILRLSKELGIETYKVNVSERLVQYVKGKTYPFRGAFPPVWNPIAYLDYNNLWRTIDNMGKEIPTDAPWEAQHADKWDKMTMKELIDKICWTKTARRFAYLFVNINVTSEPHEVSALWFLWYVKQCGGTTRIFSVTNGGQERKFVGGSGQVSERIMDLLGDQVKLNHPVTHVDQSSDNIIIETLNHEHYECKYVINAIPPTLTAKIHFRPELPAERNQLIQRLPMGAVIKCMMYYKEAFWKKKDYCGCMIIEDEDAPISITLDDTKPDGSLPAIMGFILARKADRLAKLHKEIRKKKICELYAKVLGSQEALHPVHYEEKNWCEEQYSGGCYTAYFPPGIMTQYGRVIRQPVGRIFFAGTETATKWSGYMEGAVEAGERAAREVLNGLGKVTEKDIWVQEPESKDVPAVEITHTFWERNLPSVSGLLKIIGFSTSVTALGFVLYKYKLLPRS

[16] = biological target: Muscarinic acetylcholine receptor M1 (Rattus norvegicus) (UniProt P08482); test: MUSCARIN/OTM Eurofins-Panlabs selectivity data (BI); settings: Compound concentration 10.0 uM
[17] = biological target: T2, Thromboxane-A synthase (Homo sapiens) (UniProt P24557); test: THRO SYN(HU) Eurofins-Panlabs selectivity data (BI)
T2 sequence (whole entry): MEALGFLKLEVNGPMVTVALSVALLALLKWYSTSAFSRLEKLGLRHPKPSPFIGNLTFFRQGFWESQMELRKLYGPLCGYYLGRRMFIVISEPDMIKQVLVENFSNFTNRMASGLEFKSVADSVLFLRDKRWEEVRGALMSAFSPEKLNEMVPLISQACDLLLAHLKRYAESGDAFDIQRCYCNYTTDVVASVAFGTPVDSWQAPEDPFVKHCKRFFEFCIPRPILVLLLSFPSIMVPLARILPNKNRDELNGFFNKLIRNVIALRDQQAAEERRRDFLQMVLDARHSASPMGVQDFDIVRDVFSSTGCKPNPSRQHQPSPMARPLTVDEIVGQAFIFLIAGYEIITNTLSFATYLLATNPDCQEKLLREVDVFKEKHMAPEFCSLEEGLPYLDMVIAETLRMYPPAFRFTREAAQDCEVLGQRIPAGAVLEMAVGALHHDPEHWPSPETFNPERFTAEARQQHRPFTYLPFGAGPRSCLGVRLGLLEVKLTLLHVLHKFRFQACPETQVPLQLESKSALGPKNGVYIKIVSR

[18] = biological target: Vasopressin V2 receptor (Homo sapiens) (UniProt P30518); test: VASOPRE_V2 Eurofins-Panlabs selectivity data (BI); settings: Compound concentration 10.0 uM
Vasopressin V2 receptor (Homo sapiens), sequence (P30518 whole entry): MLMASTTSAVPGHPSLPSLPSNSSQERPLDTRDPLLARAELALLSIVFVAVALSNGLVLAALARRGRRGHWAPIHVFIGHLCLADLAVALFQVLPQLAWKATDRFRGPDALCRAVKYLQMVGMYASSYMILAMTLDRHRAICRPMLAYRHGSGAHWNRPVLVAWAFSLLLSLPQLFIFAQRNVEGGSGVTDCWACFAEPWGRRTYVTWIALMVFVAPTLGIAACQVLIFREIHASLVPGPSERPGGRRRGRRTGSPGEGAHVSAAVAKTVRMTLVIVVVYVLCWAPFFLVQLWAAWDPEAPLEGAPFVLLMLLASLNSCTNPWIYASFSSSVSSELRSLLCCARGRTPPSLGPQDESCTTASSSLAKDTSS

[19] = biological target: 5-hydroxytryptamine receptor 1A (Homo sapiens) (UniProt P08908); settings: Compound concentration 10.0 uM
[20] = tissue or blood; assay type: tissue-based; settings: Homo sapiens
[21] = biological target: Muscarinic acetylcholine receptor M5 (Homo sapiens) (UniProt P08912); settings: Compound concentration 10.0 uM
Muscarinic acetylcholine receptor M5 (Homo sapiens), sequence (P08912 whole entry): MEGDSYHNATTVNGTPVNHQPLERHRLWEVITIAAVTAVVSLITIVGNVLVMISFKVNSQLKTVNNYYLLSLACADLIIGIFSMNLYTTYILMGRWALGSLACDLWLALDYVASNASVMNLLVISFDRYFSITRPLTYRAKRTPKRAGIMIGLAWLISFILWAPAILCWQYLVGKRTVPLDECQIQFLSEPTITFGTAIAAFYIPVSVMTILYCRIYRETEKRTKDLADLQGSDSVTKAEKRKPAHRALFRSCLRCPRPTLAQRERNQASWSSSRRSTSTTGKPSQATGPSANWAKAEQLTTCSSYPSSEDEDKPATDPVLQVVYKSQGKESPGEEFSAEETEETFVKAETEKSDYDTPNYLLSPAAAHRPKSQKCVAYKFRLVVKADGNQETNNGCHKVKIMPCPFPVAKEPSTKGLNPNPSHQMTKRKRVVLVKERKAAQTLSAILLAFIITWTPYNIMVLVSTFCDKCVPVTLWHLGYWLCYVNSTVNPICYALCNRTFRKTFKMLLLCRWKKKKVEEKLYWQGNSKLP

[22] = biological target: Alpha-1D adrenergic receptor (Homo sapiens) (UniProt P25100); settings: Compound concentration 10.0 uM

Compound C[C@H](NC(=O)c1cnc2n1[C@](C)(Cc1ccc(C#N)cc1)C(=O)N2c1cc(Cl)c(F)c(Cl)c1)C(=O)NC1(c2ccccn2)CC1 [BI 1950] has a residual activity [1] of 100%, a residual activity [2] of 102% and a residual activity [3] of 119%. The residual activity [4] was 88%, the activity at 0.03 µM ([5]; compound concentration 0.03 uM) was 97% (not active) and the activity at 0.1 µM ([5]; compound concentration 0.1 uM) was 98% (not active). For the same compound, the activity at 0.3 µM ([5]; compound concentration 0.3 uM) was 94% (not active), the activity at 1 µM ([5]; compound concentration 1 uM) was 81% (not active) and the activity at 3 µM ([5]; compound concentration 3 uM) was 58% (not active). For the same compound, the activity at 10 µM ([5]; compound concentration 10 uM) was 28%, the residual activity [6] was 102% and the residual activity [7] was 92%. It also gave a residual activity [8] of 115%, a residual activity [9] of 86% and a residual activity [10] of 67%. The residual activity [11] was 99%, the residual activity [12] was 98% and the residual activity [13] was 107%. The residual activity [14] was 108%, the activity at 10 µM [15] was 107% (not active) and the residual activity [16] was 77%. For the same compound, the residual activity ([17]; Compound concentration 0.03 uM) was 94%, the residual activity ([17]; Compound concentration 0.1 uM) was 93% and the residual activity ([17]; Compound concentration 0.3 uM) was 91%. The residual activity ([17]; Compound concentration 1.0 uM) was 82%, the residual activity ([17]; Compound concentration 3.0 uM) was 74% and the residual activity ([17]; Compound concentration 10.0 uM) was 47%. The residual activity [18] was 85% and the inhibition [19] was -9.74%.

C[C@@]1(Cc2ccc(C#N)cc2)C(=O)N(c2cc(Cl)cc(Cl)c2)c2ncc(C(=O)NC3(c4nc(C5CCC5)no4)CC3)n21 [BI 9446] gave an IC50 [20] of over 1 µM, an inhibition [21] of -8.46% and an inhibition [22] of 8.28%.
